Laboratory results taken from patent US8865914B2, “Fluorescent probes for detection of copper” (The Regents of the University of California, priority 2012, dated 2014).

Columns and labels:
[1] = Spectroscopic fluorescence response to Cu(I) and its pH dependency in HEPES buffer; type: physicochemical; details: for fluorescence response to Cu(I): 20 mM HEPES, pH 7; for sensitivity of fluorescence to pH changes: physiological pH range
Experimental: (§1) Millipore water was used to prepare all aqueous solutions. All spectroscopic measurements were performed in 20 mM HEPES buffer, pH 7.0. Absorption spectra were recorded on a Varian Cary 50 spectrophotometer (Walnut Creek, Calif.) and fluorescence spectra were recorded on a Photo Technology International Quanta Master 4 L-format scan spectrofluorometer (Lawrenceville, N.J.) equipped with an LPS-220B 75-W xenon lamp and power supply, A-1010B lamp housing with integrated igniter, switchable 814 photocounting/analog photomultiplier detection unit, and MD5020 motor driver. Samples for absorption and emission measurements were contained in 1-cm×1-cm quartz cuvettes (1.4-mL volume, Starna, Atascadero, Calif.). Metals used in the selectivity assay were derived from their chloride salts or nitrate salts. The binding affinity of Cu^+ to the dyes was measured using thiourea as a competitive ligand to provide a buffered Cu^+ solution. Briefly, a 1-2 μM solution of dye was made in 20 mM HEPES, pH 7.0 and buffered with a known concentration of thiourea from a 500 mM stock in MilliQ H2O. Cu(I) was delivered in the form of [Cu(MeCN)4][PF6] from an acetonitrile stock solution (2 or 10 mM). The maximum acetonitrile concentration was 0.1%; this concentration of acetonitrile is not high enough to effectively compete with the dyes for Cu^+. Stability constants for thiourea binding were taken from the literature: β12=2.0×10^12, β13=2.0×10^14, β14=3.4×10^15. Martell, A. E.; Smith, R. M. Critical Stability Constants; Plenum Press: New York, 1989. The apparent dissociation constant (Kd) was determined using the following equation: (F−Fmin)/(Fmax−Fmin)=[Cu^+]/(Kd+[Cu^+]), where F is the observed fluorescence; Fmax is the fluorescence for the Cu^+:dye complex; Fmin is the fluorescence for the dye; and [Cu^+] is the ‘free’ Cu^+ available for complexation, which was calculated using the stability constants for thiourea and standard competition equilibrium expressions.

[2] = Metal selectivity assay (fluorescence response to various metal ions); type: binding; details: 20 mM HEPES, pH 7
Experimental: as §1, with “Briefly, a 1-2 μM solution of dye was made in 20 mM HEPES, pH 7.0 and buffered with a known concentration of thiourea from a 500 mM stock in MilliQ H2O. Cu(I) was delivered in the form of [Cu(MeCN)4][PF6] from an acetonitrile stock solution (2 or 10 mM). The maximum acetonitrile concentration was 0.1%; this concentration of acetonitrile is not high enough to effectively compete with the dyes for Cu^+. Stability constants for thiourea binding were taken from the literature: β12=2.0×10^12, β13=2.0×10^14, β14=3.4×10^15. Martell, A. E.; Smith, R. M. Critical Stability Constants; Plenum Press: New York, 1989.” left out

[3] = test system: HEK293 cells; assay: Flow cytometry and confocal live-cell imaging of intracellular Cu^+; type: cell-based, Human; details: HEK293 cells loaded with 100 μM copper chloride, with or without copper chelator
Experimental: Cells were grown in the Tissue Culture Facility at the University of California, Berkeley with expert technical assistance from Ann Fischer and Michelle Yasukawa. HEK (Human Embryonic Kidney) 293T cells were cultured in Dulbecco's Modified Eagle Medium (DMEM, Invitrogen, Carlsbad, Calif.) supplemented with 10% Fetal Bovine Serum (FBS, Invitrogen, Carlsbad, Calif.) and glutamine (2 mM). Two days before imaging, cells were passed and plated on 12-mm glass coverslips coated with poly-L-lysine ([…], Sigma, St. Louis, Mo.). For all experiments, solutions of dyes (from 5 mM stocks in DMSO) were made in Dulbecco's Phosphate buffered saline (DPBS, GIBCO) without calcium chloride, magnesium chloride, magnesium sulfate, sodium bicarbonate, or phenol red. For copper treatment, HEK 293T cells were cultured as described above. One day prior to imaging, 100 μM CuCl2 was added to cells from a 100 mM aqueous stock solution. Cells were then incubated at 37° C., 5% CO2. After 10-12 hours, the media was exchanged for DPBS. Flowcytometry were performed with LSRFortessaTM cell analyzer (BD Biosciences) equipping 640 nm red laser and PE-Cy7 band pass filter. Cells were prepared as described above, and then 3-5 μM CS788 or […] […] Confocal fluorescence images were acquired at the Molecular Imaging Center at the University of California, Berkeley. […]

[4] = test system: SKH1 mice; assay: Fluorescence imaging experiments in living mice; type: in vivo; details: for detection of endogenous levels of copper in mice: fluorescence imaging in mice; for detection of changes in copper levels in living mice: mice injected i.p. with copper chloride, copper chelator (ATN-224) or both, then dye
Experimental: Fluorescence images of mice were acquired using a Xenogen IVIS Spectrum instrument. SKH1 mice were obtained from Charles River Labs. Mice were single or group-housed on a 12:12 light-dark cycle at 22° C. with free access to food and water. SKH1 mice, aged 5-10 weeks, were anesthetized with isoflurane and injected with 1) DPBS (i.p., 100 μL), 2) CuCl2 (i.p., 5 mg/kg in 50 μL of DPBS) and DBPS (i.p., 50 μL), 3) CuCl2 (i.p., 5 mg/kg in 50 μL of DPBS) and ATN-224 (i.p., 5 mg/kg in 50 μL of DPBS), or 4) ATN-224 (i.p., 5 mg/kg in 50 μL of DPBS) and DBPS (i.p., 50 μL). 0-24 hours later, the mice were anesthetized with isoflurane and injected (i.p.) with DPBS (50 μL) or a dye (0.1 mM, 50 μL) and imaged immediately or up to 10 days later. All animal studies were approved and performed according to the guidelines of the Animal Care and Use Committee of the University of California, Berkeley.

sensitivity of fluorescence to pH changes [1] | SMILES | fluorescence response to Cu(I) [1] | selectivity for Cu(I) over other transition metals, alkali metals and alkali earth metals [2] | detection of copper level changes in living cells [3] | detection of endogenous levels of copper in mice [4] | detection of changes in copper levels in living mice [4] | changes in integrated fluorescence from individual mice ([4]; two-tailed Student's t-test, P<0.05, n=3, except the change between CS790AM and copper, ATN-244, and CS790AM)
insensitive to pH changes | CCCN1/C(=C/C=C2\CCCC(/C=C/C3=[N+](CCC)c4ccccc4C3(C)C)=C2Oc2ccc(N(CCSCCSCC)CCSCCSCC)cc2)C(C)(C)c2ccccc21.[I-] [CS788] | large fluorescence increase | bind selectively to Cu(I) | increased fluorescence in cells loaded with copper chloride | able to detect endogenous levels of copper | can detect changes in copper levels in mice | –
insensitive to pH changes | CSCCCNc1ccc(OC2=C(/C=C/C3=[N+](CCC(=O)OCOC(C)=O)c4ccccc4C3(C)C)CCC/C2=C\C=C2\N(CCC(=O)OCOC(C)=O)c3ccccc3C2(C)C)cc1SCCCSC.[Br-] [CS790AM] | large fluorescence increase | bind selectively to Cu(I) | increased fluorescence in cells loaded with copper chloride | able to detect endogenous levels of copper | can detect changes in copper levels in mice | statistically significant
